pIC50: −log10 of the molar value. The source made the active and inactive calls. No cut-off for these calls is given here.
Experiments:
MCF7 = experiment: Cytotoxicity against human MCF-7 cells assessed as cell viability incubated for 96 hrs by MTT assay; format: functional, cell-based; conditions: MCF7, 96 h
Calu-3 = experiment: Cytotoxicity against human CALU-3 cells assessed as cell viability incubated for 96 hrs by MTT assay; format: functional, cell-based; conditions: Calu-3, 96 h
SCC-25 [1] = experiment: Cytotoxicity against human SCC-25 cells assessed as cell viability incubated for 96 hrs by MTT assay; format: functional, cell-based; conditions: SCC-25, 96 h
[2] = Cytotoxicity against human Oral epithelial cell assessed as cell viability incubated for 96 hrs by MTT assay; conditions: for IC50 at 96 h: human, oral epithelial cells; for IC50: oral epithelial cell
[3] = target: DNA topoisomerase 2-alpha (Homo sapiens) (UniProt P11388); experiment: Inhibition of human topoisomerase II alpha using kinetoplast DNA as substrate incubated for 30 mins; conditions: dose 10-100 µM
Sequence of DNA topoisomerase 2-alpha (Homo sapiens) (P11388 whole entry): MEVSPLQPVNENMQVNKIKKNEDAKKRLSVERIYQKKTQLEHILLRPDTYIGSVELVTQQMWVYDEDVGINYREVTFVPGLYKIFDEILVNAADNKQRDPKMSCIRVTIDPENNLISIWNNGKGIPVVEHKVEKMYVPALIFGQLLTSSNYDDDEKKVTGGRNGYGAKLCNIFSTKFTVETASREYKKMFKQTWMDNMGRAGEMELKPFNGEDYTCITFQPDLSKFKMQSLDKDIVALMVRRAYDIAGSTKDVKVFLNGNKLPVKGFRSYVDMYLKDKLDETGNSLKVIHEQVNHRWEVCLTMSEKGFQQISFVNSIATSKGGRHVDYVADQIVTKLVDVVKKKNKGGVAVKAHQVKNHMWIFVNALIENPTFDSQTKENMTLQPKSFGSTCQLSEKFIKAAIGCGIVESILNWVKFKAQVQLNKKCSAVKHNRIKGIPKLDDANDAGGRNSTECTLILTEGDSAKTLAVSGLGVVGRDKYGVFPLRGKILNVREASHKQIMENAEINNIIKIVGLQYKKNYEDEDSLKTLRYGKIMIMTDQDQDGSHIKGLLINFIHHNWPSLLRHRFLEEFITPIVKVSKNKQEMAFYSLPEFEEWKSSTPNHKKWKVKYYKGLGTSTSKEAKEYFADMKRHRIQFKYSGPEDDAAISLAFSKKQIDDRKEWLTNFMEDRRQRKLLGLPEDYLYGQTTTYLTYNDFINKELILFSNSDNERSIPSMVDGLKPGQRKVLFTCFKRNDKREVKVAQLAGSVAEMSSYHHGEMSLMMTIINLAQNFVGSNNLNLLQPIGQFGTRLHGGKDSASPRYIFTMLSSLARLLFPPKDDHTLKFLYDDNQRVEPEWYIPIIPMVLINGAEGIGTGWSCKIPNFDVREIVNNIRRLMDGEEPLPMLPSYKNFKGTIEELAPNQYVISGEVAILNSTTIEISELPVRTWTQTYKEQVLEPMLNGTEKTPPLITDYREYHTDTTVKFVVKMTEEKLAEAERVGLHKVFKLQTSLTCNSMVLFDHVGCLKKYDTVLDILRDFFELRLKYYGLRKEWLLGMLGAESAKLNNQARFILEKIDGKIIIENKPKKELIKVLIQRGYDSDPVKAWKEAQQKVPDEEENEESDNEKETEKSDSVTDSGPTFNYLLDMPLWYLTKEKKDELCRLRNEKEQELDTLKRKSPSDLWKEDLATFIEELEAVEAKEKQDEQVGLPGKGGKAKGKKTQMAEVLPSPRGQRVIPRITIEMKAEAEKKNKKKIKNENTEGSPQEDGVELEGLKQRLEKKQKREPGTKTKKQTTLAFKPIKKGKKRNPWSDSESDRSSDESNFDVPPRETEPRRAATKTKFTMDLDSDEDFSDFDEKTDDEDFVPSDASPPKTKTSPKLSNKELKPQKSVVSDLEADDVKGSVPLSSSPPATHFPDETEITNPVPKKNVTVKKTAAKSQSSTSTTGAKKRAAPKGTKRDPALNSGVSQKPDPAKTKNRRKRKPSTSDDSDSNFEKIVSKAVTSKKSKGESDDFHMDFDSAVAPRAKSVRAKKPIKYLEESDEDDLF

SCC-25 [4] = experiment: Induction of apoptosis in human SCC-25 cells assessed as necrotic cells at 10 uM incubated for 48 hrs by Annexin V-Alexa fluor 488 and propidium iodide staining based flow cytometry relative to control; format: functional
SCC-25 [5] = experiment: Induction of apoptosis in human SCC-25 cells assessed as late apoptotic cells at 10 uM incubated for 48 hrs by Annexin V-Alexa fluor 488 and propidium iodide staining based flow cytometry relative to control; format: functional
SCC-25 [6] = experiment: Induction of apoptosis in human SCC-25 cells assessed as early apoptotic cells at 10 uM incubated for 48 hrs by Annexin V-Alexa fluor 488 and propidium iodide staining based flow cytometry relative to control; format: functional
SCC-25 [7] = experiment: Induction of apoptosis in human SCC-25 cells assessed as viable at 10 uM incubated for 48 hrs by Annexin V-Alexa fluor 488 and propidium iodide staining based flow cytometry relative to control; format: functional
SCC-25 [8] = experiment: Induction of apoptosis in human SCC-25 cells assessed as necrotic cells at 1 uM incubated for 48 hrs by Annexin V-Alexa fluor 488 and propidium iodide staining based flow cytometry relative to control; format: functional
SCC-25 [9] = experiment: Induction of apoptosis in human SCC-25 cells assessed as late apoptotic cells at 1 uM incubated for 48 hrs by Annexin V-Alexa fluor 488 and propidium iodide staining based flow cytometry relative to control; format: functional
SCC-25 [10] = experiment: Induction of apoptosis in human SCC-25 cells assessed as early apoptotic cells at 1 uM incubated for 48 hrs by Annexin V-Alexa fluor 488 and propidium iodide staining based flow cytometry relative to control; format: functional
SCC-25 [11] = experiment: Induction of apoptosis in human SCC-25 cells assessed as viable at 1 uM incubated for 48 hrs by Annexin V-Alexa fluor 488 and propidium iodide staining based flow cytometry relative to control; format: functional
SCC-25 [12] = experiment: Induction of apoptosis in human SCC-25 cells assessed as necrotic cells at 0.1 uM incubated for 48 hrs by Annexin V-Alexa fluor 488 and propidium iodide staining based flow cytometry relative to control; format: functional
SCC-25 [13] = experiment: Induction of apoptosis in human SCC-25 cells assessed as late apoptotic cells at 0.1 uM incubated for 48 hrs by Annexin V-Alexa fluor 488 and propidium iodide staining based flow cytometry relative to control; format: functional
SCC-25 [14] = experiment: Induction of apoptosis in human SCC-25 cells assessed as early apoptotic cells at 0.1 uM incubated for 48 hrs by Annexin V-Alexa fluor 488 and propidium iodide staining based flow cytometry relative to control; format: functional
SCC-25 [15] = experiment: Induction of apoptosis in human SCC-25 cells assessed as viable at 0.1 uM incubated for 48 hrs by Annexin V-Alexa fluor 488 and propidium iodide staining based flow cytometry relative to control; format: functional
[16] = target: DNA topoisomerase 2-alpha (Homo sapiens) (UniProt P11388); experiment: Inhibition of human topoisomerase II alpha using kinetoplast DNA as substrate at 10 microM incubated for 30 mins
SCC-25 [17] = experiment: Induction of apoptosis in human SCC-25 cells assessed as viable at 200 uM incubated for 48 hrs by Annexin V-Alexa fluor 488 and propidium iodide staining based flow cytometry relative to control; format: functional
SCC-25 [18] = experiment: Induction of apoptosis in human SCC-25 cells assessed as necrotic cells at 200 uM incubated for 48 hrs by Annexin V-Alexa fluor 488 and propidium iodide staining based flow cytometry relative to control; format: functional
SCC-25 [19] = experiment: Induction of apoptosis in human SCC-25 cells assessed as late apoptotic cells at 200 uM incubated for 48 hrs by Annexin V-Alexa fluor 488 and propidium iodide staining based flow cytometry relative to control; format: functional
SCC-25 [20] = experiment: Induction of apoptosis in human SCC-25 cells assessed as early apoptotic cells at 200 uM incubated for 48 hrs by Annexin V-Alexa fluor 488 and propidium iodide staining based flow cytometry relative to control; format: functional
[21] = target: DNA topoisomerase 2-alpha (Homo sapiens) (UniProt P11388); conditions: dose 2.0 mM, time 30.0 min

Cn1c2ccccc2c(=O)c2c(OCc3ccc(C(=O)NO)cc3)cc3c(c21)C=CC(C)(C)O3
pIC50 (MCF7): 5.33 | pIC50 (Calu-3): 5.74 | pIC50 (SCC-25 [1]): 5.78 | IC50 at 96 h [2]: > 100 µM

COc1cc2c(c3c1c(=O)c1ccccc1n3CC(=O)NO)C=CC(C)(C)O2
pIC50 (MCF7): < 4.00 | pIC50 (Calu-3): 4.21 | pIC50 (SCC-25 [1]): 4.38 | IC50 [2]: Not_determined

Cn1c2ccccc2c(=O)c2c(OCCCC(=O)NO)cc3c(c21)C=CC(C)(C)O3
pIC50 (MCF7): 5.55 | pIC50 (Calu-3): 5.49 | pIC50 (SCC-25 [1]): 5.66 | IC50 at 96 h [2]: 27 µM | inhibition [3]: Dose-dependent-effect

COc1cc2c(c3[nH]c4ccccc4c(=O)c13)C=CC(C)(C)O2
pIC50 (MCF7): 3.72 | pIC50 (Calu-3): 4.86 | pIC50 (SCC-25 [1]): 4.67 | IC50 [2]: Not_determined

Cn1c2ccccc2c(=O)c2c(O)cc3c(c21)C=CC(C)(C)O3 [NORACRONYCINE]
pIC50 (MCF7): 3.73 | pIC50 (Calu-3): 4.01 | pIC50 (SCC-25 [1]): 4.85 | IC50 [2]: Not_determined

COc1cc2c(c3c1c(=O)c1ccccc1n3CCCC(=O)NO)C=CC(C)(C)O2
pIC50 (MCF7): < 4.00 | pIC50 (Calu-3): 4.43 | pIC50 (SCC-25 [1]): 4.44 | IC50 [2]: Not_determined

Cn1c2ccccc2c(=O)c2c(OCCCCC(=O)NO)cc3c(c21)C=CC(C)(C)O3
pIC50 (MCF7): 5.99 | pIC50 (Calu-3): 5.82 | pIC50 (SCC-25 [1]): 6.46 | IC50 at 96 h [2]: > 100 µM | Activity (SCC-25 [4]): 33.1% | inhibition [3]: Dose-dependent-effect | Activity (SCC-25 [5]): 53.1% | Activity (SCC-25 [6]): 0.15% | Activity (SCC-25 [7]): 13.7% | Activity (SCC-25 [8]): 7.49% | Activity (SCC-25 [9]): 4.35% | Activity (SCC-25 [10]): 1.13% | Activity (SCC-25 [11]): 87% | Activity (SCC-25 [12]): 1.96% | Activity (SCC-25 [13]): 1.35% | Activity (SCC-25 [14]): 0.63% | Activity (SCC-25 [15]): 96.1%

Cn1c2ccccc2c(=O)c2c(OCCCCCC(=O)NO)cc3c(c21)C=CC(C)(C)O3
pIC50 (MCF7): 5.08 | pIC50 (Calu-3): 4.79 | pIC50 (SCC-25 [1]): 5.01 | IC50 at 96 h [2]: 24.5 µM | inhibition [3]: Dose-dependent-effect

COc1cc2c(c3c1c(=O)c1ccccc1n3CCCCC(=O)NO)C=CC(C)(C)O2
pIC50 (MCF7): < 4.00 | pIC50 (Calu-3): 4.53 | pIC50 (SCC-25 [1]): < 4.00 | IC50 [2]: Not_determined

COc1cc2c(c3c1c(=O)c1ccccc1n3CCCCCCC(=O)NO)C=CC(C)(C)O2
pIC50 (MCF7): 5.21 | pIC50 (Calu-3): 5.36 | pIC50 (SCC-25 [1]): 5.95 | IC50 at 96 h [2]: 60.2 µM | inhibition [3]: Dose-dependent-effect

COc1cc2c(c3c1c(=O)c1ccccc1n3Cc1cccc(C(=O)NO)c1)C=CC(C)(C)O2
pIC50 (MCF7): 4.10 | pIC50 (Calu-3): 4.38 | pIC50 (SCC-25 [1]): 4.41 | IC50 [2]: Not_determined

Cn1c2ccccc2c(=O)c2c(OCCCCCCC(=O)NO)cc3c(c21)C=CC(C)(C)O3
pIC50 (MCF7): 5.24 | pIC50 (Calu-3): 4.97 | pIC50 (SCC-25 [1]): 6.15 | IC50 at 96 h [2]: > 100 µM | inhibition [3]: Dose-dependent-effect

Cn1c2ccccc2c(=O)c2c(OCC(=O)NO)cc3c(c21)C=CC(C)(C)O3
pIC50 (MCF7): 4.96 | pIC50 (Calu-3): 5.40 | pIC50 (SCC-25 [1]): 5.92 | IC50 at 96 h [2]: > 100 µM | inhibition [3]: Dose-dependent-effect

Cn1c2ccccc2c(=O)c2c(OCc3cccc(C(=O)NO)c3)cc3c(c21)C=CC(C)(C)O3
pIC50 (MCF7): 5.18 | pIC50 (Calu-3): 5.19 | pIC50 (SCC-25 [1]): 4.64 | IC50 at 96 h [2]: > 100 µM | inhibition [16]: Active

COc1cc2c(c3c1c(=O)c1ccccc1n3CCCCCC(=O)NO)C=CC(C)(C)O2
pIC50 (MCF7): 4.39 | pIC50 (Calu-3): 4.74 | pIC50 (SCC-25 [1]): 4.83 | IC50 at 96 h [2]: > 100 µM

COc1cc([C@@H]2c3cc4c(cc3[C@@H](O[C@@H]3O[C@@H]5CO[C@@H](C)O[C@H]5[C@H](O)[C@H]3O)[C@H]3COC(=O)[C@H]23)OCO4)cc(OC)c1O [ETOPOSIDE]
pIC50 (MCF7): 4.25 | pIC50 (Calu-3): 6.22 | pIC50 (SCC-25 [1]): 5.47 | IC50 [2]: Not_determined | Activity (SCC-25 [17]): 65.5% | Activity (SCC-25 [18]): 13.3% | Activity (SCC-25 [19]): 17.2% | Activity (SCC-25 [20]): 2.76% | inhibition [21]: Active

COc1cc2c(c3c1c(=O)c1ccccc1n3Cc1ccc(C(=O)NO)cc1)C=CC(C)(C)O2
pIC50 (MCF7): 4.71 | pIC50 (Calu-3): 4.85 | pIC50 (SCC-25 [1]): 5.11 | IC50 at 96 h [2]: 82.5 µM | inhibition [3]: Dose-dependent-effect
